# “Also recorded” adds a separate entry of the source. Like-named read-outs stand apart in the source and are kept apart here.
# Columns and labels:
# [1] = system: polymodal nociceptors; set-up: species or system Sprague-Dawley rats; details: rat, in vivo
# [2] = molecular target: protein kinase C; details: read-out: KI, binding affinity to protein kinase C; cited from earlier work
# [3] = system: polymodal nociceptors; assay type: in vivo, Sprague-Dawley rats; details: for Neurogenic inflammation, Evan's blue: 30 min; for Evan's blue extravasation / less potent than RTX for induction of Evan's blue extravasation: rat, in vivo
# [4] = system: polymodal nociceptor neurons; details: for RTX-like effects: in vivo
# [5] = system: polymodal nociceptors; assay: animal or person; assay type: in vivo, Sprague-Dawley rats
# [6] = system: protein kinase C; assay type: binding; details: for Ki: read-out: KI, binding affinity to protein kinase C
# [7] = system: polymodal nociceptors; assay: animal or person; assay type: in vivo, Sprague-Dawley rats; remark: listed apart in the source
# [8] = system: mouse ear; details: in vivo; cited from earlier work
# [9] = system: polymodal nociceptor neurons; details: in vivo; cited from earlier work
# [10] = system: polymodal nociceptors; details: rat, in vivo; cited from earlier work
# [11] = rat, in vivo; cited from earlier work
# [12] = mouse, in vivo; cited from earlier work
# [13] = system: polymodal nociceptors; set-up: species or system Sprague-Dawley rats; details: rat, in vivo; remark: listed apart in the source
# [14] = set-up: species or system rats; details: rat, in vivo
# [15] = Rattus norvegicus, sc, 6 hr, read-out: Systemic desensitization against neurogenic inflammation, inhibition
# [16] = Rattus norvegicus, sc, 6 h, read-out: Systemic desensitization against neurogenic pain, inhibition
compound,measurement,setting,value
"C=C(C)[C@@]12O[C@@]3(c4ccccc4)O[C@@H]1[C@@H]1[C@@H]4O[C@]4(CO)[C@@H](O)[C@]4(O)C(=O)C(C)=C[C@H]4[C@@]1(O3)[C@H](C)[C@H]2OC(=O)/C=C/C=C/c1ccccc1 [Mez, Mezerein]",RPP (Relative Pain-Producing Potency),[1],0.1
same,Ki,[2],0.58 ± 0.06 nM
same,"Neurogenic inflammation, Evan's blue",[3],0
same,Evan's blue extravasation,[3],slight extravasation
same,RTX-like effects,[4],inactive
same,inhibition at 0.3 mg/kg,[5]; [15],0%
"C=C(C)[C@@]12O[C@@]3(c4ccccc4)O[C@@H]1[C@@H]1[C@@H]4O[C@]4(COC(=O)Cc4ccc(O)c(OC)c4)[C@@H](O)[C@]4(O)C(=O)C(C)=C[C@H]4[C@@]1(O3)[C@H](C)[C@H]2OC(=O)/C=C/C=C/c1ccccc1 [Mez-HV, Mezerein 20-homovanillate]",RPP (Relative Pain-Producing Potency),[1],0.1
same,activity in eye-wiping assay / pain induction,[1],very weak pungency; also recorded: very weak activity
same,"potency in eye-wiping assay, less potent than RTX and dPP-HV",[1],approximately 4 orders of magnitude
same,Relative Affinity,[6],690
same,reduction of protein kinase C binding affinity by the 20-homovanillate ester,[6],690 fold
same,Ki,[6],400 ± 110 nM
same,inhibition at 0.3 mg/kg,[7]; [16],0%
same,desensitization to chemically-induced pain and to neurogenic inflammation,"[7]; rat, in vivo",No activity; also recorded: inactive
same,"Neurogenic inflammation, Evan's blue",[3],0
same,Evan's blue extravasation,[3],No extravasation
same,less potent than RTX for induction of Evan's blue extravasation,[3],at least 30 fold
same,RTX-like effects,[4],inactive
same,inhibition at 0.3 mg/kg,[5]; [15],0%
"C=C(C)[C@]12C[C@@H](C)[C@@]34O[C@](Cc5ccccc5)(O[C@@H]1[C@@H]3C=C(CO)C[C@]1(O)C(=O)C(C)=C[C@@H]41)O2 [ROA, Resiniferonol 9,13,14Orthophenylacetate]",RPP (Relative Pain-Producing Potency),[1],1
same,less potent than RTX for RTX-characteristic biological responses,[1],at least 1000 fold
same,less active than dPP or mezerein in competing for phorbol ester binding sites on protein kinase C,[6],100 fold
same,Ki,[6],36 ± 9 nM
same,inhibition at 0.3 mg/kg,[7]; [16],0%
same,"Neurogenic inflammation, Evan's blue",[3],0
same,RTX-like effects,[4],totally inactive
same,inhibition at 0.3 mg/kg,[5]; [15],0%
same,"potency in ear reddening assay, less than dPP",[8],25 fold
same,"potency in ear reddening assay, less than mezerein",[8],33 fold
"C=C(C)[C@]12C[C@@H](C)[C@@]34O[C@](Cc5ccccc5)(O[C@@H]1[C@@H]3C=C(COC(=O)Cc1ccc(O)c(OC)c1)C[C@]1(O)C(=O)C(C)=C[C@@H]41)O2 [RTX, Resiniferatoxin]",more potent compared to capsaicin,[9],3-4 orders of magnitude
same,dose giving a detectable Evan's blue extravasation response,[10],3×10^-6 g/paw
same,RPP (Relative Pain-Producing Potency),[1],1000
same,activity in eye-wiping assay / pain induction,[1],comparable activity
same,delay of eye-wiping movements after instillation,[1],5 to 10 s
same,Relative Affinity,[6],11
same,reduction of protein kinase C binding affinity by the 20-homovanillate ester,[6],11 fold
same,Ki,[6],404 ± 63 nM
same,inhibition at 0.01 mg/kg,[7]; [16],100%
same,dose producing a substantial drop in body temperature,[11],10^-7 g/kg
same,"Neurogenic inflammation, Evan's blue",[3],91.6 ± 3.6
same,body temperature in mice,[12],dramatic fall in body temperature
same,"Local desensitization against neurogenic pain, inhibition",[13],43%
same,inhibition at 0.3 mg/kg,[5]; [15],100%
same,more potent than phorbol 12-myristate 13-acetate in mouse ear erythema assay,[8],1000 fold
COc1cc(CNC(=O)CCCC/C=C/C(C)C)ccc1O [capsaicin],body temperature in mice,[12],dramatic fall in body temperature
"CC1=C[C@H]2[C@@]3(O)[C@H](C)C[C@]4(OC(=O)Cc5ccccc5)[C@H]([C@@H]3C=C(CO)C[C@]2(O)C1=O)C4(C)C [dPP, 12-deoxyphorbol 13-phenylacetate]",RPP (Relative Pain-Producing Potency),[1],1
same,Ki,[6],0.64 ± 0.01 nM
same,"Neurogenic inflammation, Evan's blue",[3],0
same,Evan's blue extravasation,[3],slight extravasation
same,RTX-like effects,[4],inactive
same,inhibition at 0.3 mg/kg,[5]; [15],0%
"COc1cc(CC(=O)OCC2=C[C@H]3[C@@H]4C(C)(C)[C@]4(OC(=O)Cc4ccccc4)C[C@@H](C)[C@]3(O)[C@@H]3C=C(C)C(=O)[C@@]3(O)C2)ccc1O [dPP-HV, 20-Homovanillic-12-deoxyphorbol 13-phenylacetate]",RPP (Relative Pain-Producing Potency),[1],1000
same,activity in eye-wiping assay / pain induction,[1],comparable to RTX; also recorded: comparable activity
same,delay of eye-wiping movements after instillation,[1],20 to 30 s
same,Relative Affinity,[6],130
same,reduction of protein kinase C binding affinity by the 20-homovanillate ester,[6],130 fold
same,Ki,[6],82 ± 13 nM
same,inhibition at 0.3 mg/kg,[7]; [16],19%
same,desensitization to chemically-induced pain and to neurogenic inflammation,"[7]; rat, in vivo",able to desensitize
same,"relative potency for systemic desensitization to chemically induced pain, less than RTX","[7]; rat, in vivo",approximately 3000 fold
same,induction of hypothermia,[14],totally inactive
same,less potent than RTX for induction of hypothermia,[14],at least 4 orders of magnitude
same,"Neurogenic inflammation, Evan's blue",[3],0
same,Evan's blue extravasation,[3],No extravasation
same,less potent than RTX for induction of Evan's blue extravasation,[3],at least 30 fold
same,less potent than RTX in the other RTX responses / in vivo assays,[4],2-4 orders of magnitude
same,RTX-like effects,[4],more active than capsaicin and less active than RTX
same,"Local desensitization against neurogenic pain, inhibition",[13],78%
same,potency relative to RTX for desensitization of pain upon local administration,[13],≤ 10 fold
same,inhibition at 0.3 mg/kg,[5]; [15],26%
same,inhibition at 1 mg/kg,[5]; [15],62%
same,"relative potency for inhibiting xylene-induced Evan's blue extravasation, less than RTX","[5]; rat, in vivo",300 fold
